What follows are compounds tested against Glutaminyl-peptide cyclotransferase (Homo sapiens, UniProt Q16769) (assay: Inhibition of glutaminyl cyclase (unknown origin)).
Chain of Glutaminyl-peptide cyclotransferase (Q16769 whole entry): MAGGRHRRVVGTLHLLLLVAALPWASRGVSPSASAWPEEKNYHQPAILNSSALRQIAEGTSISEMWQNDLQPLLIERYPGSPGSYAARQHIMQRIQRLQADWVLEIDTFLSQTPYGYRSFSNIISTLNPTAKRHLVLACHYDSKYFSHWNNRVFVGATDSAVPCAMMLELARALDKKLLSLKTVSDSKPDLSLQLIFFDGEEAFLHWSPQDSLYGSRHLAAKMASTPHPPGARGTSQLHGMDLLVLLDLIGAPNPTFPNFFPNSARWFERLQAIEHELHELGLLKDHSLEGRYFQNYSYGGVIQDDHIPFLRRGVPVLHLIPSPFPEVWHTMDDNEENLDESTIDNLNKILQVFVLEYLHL
`Cc1cncn1CCCn1cc(C2=C(c3ccccc3F)C(=O)NC2=O)c2ccccc21` gave an IC50 of 2760 nM. For `COc1cccc(C2=C(c3cn(CCCn4cncc4C)c4ccccc34)C(=O)NC2=O)c1`, the IC50 was 6320 nM. `Cc1cncn1CCCn1cc(C2=C(c3ccc(OCCCn4ccnc4)cc3)C(=O)NC2=O)c2ccccc21` gave an IC50 of 15000 nM. For `Cc1cncn1CCCn1cc(C2=C(c3ccc(OCCCN4CCCCC4)cc3)C(=O)NC2=O)c2ccccc21`, the IC50 was 1120 nM. For `Cc1ccccc1C1=C(c2cn(CCCn3cncc3C)c3ccccc23)C(=O)NC1=O`, the IC50 was 1760 nM. Work on `Cc1cncn1CCCn1cc(C2=C(c3ccc(OCCCCc4ccccc4)cc3)C(=O)NC2=O)c2ccccc21` yielded an IC50 of 6990 nM. `Cc1cncn1CCCn1cc(C2=C(c3cc(F)c(F)cc3F)C(=O)NC2=O)c2ccccc21` showed an IC50 of 2600 nM. With `COc1cc(C2=C(c3cn(CCCn4cncc4C)c4ccccc34)C(=O)NC2=O)ccc1OCCCCc1ccccc1` the IC50 was 26200 nM. In the case of `Cc1cncn1CCCn1cc(C2=C(c3ccc(OCCCCN4CCCC4)cc3)C(=O)NC2=O)c2ccccc21`, the IC50 is reported as 1080 nM. Work on `Cc1cncn1CCCn1cc(C2=C(c3ccc(OCCCCN4CCN(C)CC4)cc3)C(=O)NC2=O)c2ccccc21` yielded an IC50 of 3240 nM. Work on `Cc1cncn1CCCn1cc(C2=C(c3ccc(OCCCN4CCCC4)cc3)C(=O)NC2=O)c2ccccc21` yielded an IC50 of 3920 nM. In the case of `COc1cc(C2=C(c3cn(CCCn4cncc4C)c4ccccc34)C(=O)NC2=O)ccc1OCCCc1ccccc1`, the IC50 is reported as 18100 nM. `Cc1cncn1CCCn1cc(C2=C(c3ccccc3)C(=O)NC2=O)c2ccccc21` showed an IC50 of 2300 nM. For `CCCOc1ccc(C2=C(c3cn(CCCn4cncc4C)c4ccccc34)C(=O)NC2=O)cc1`, the IC50 was 20000 nM. For `COc1ccccc1C1=C(c2cn(CCCn3cncc3C)c3ccccc23)C(=O)NC1=O`, the IC50 was 1710 nM. In the case of `Cc1cncn1CCCn1cc(C2=C(c3ccc(OCCCCn4ccnc4)cc3)C(=O)NC2=O)c2ccccc21`, the IC50 is reported as 11200 nM. `Cc1cncn1CCCn1cc(C2=C(c3ccc(OCCCN4CCN(c5ccccc5)CC4)cc3)C(=O)NC2=O)c2ccccc21` gave an IC50 of 9550 nM. Compound `COc1ccc(C2=C(c3cn(CCCn4cncc4C)c4ccccc34)C(=O)NC2=O)cc1OC` has an IC50 of 4590 nM. Compound `Cc1cncn1CCCn1cc(C2=C(c3ccc(OCCCCN4CCOCC4)cc3)C(=O)NC2=O)c2ccccc21` has an IC50 of 2210 nM. Work on `COc1cc(C2=C(c3cn(CCCn4cncc4C)c4ccccc34)C(=O)NC2=O)ccc1OCCCN1CCCCC1` yielded an IC50 of 1130 nM. `Cc1cncn1CCCn1cc(C2=C(c3ccc(OCCCN4CCOCC4)cc3)C(=O)NC2=O)c2ccccc21` was tested, and the IC50 was 1510 nM. `Cc1cncn1CCCn1cc(C2=C(c3cccc([N+](=O)[O-])c3)C(=O)NC2=O)c2ccccc21` gave an IC50 of 6130 nM. In the case of `COc1cc(C2=C(c3cn(CCCn4cncc4C)c4ccccc34)C(=O)NC2=O)ccc1OCCCCN1CCOCC1`, the IC50 is reported as 13000 nM. In the case of `Cc1cncn1CCCn1cc(C2=C(c3ccc(OCCCCN4CCCCC4)cc3)C(=O)NC2=O)c2ccccc21`, the IC50 is reported as 2200 nM. Work on `Cc1cncn1CCCn1cc(C2=C(c3ccc([N+](=O)[O-])cc3)C(=O)NC2=O)c2ccccc21` yielded an IC50 of 1890 nM. `Cc1cccc(C2=C(c3cn(CCCn4cncc4C)c4ccccc34)C(=O)NC2=O)c1` was tested, and the IC50 was 6230 nM. `Cc1cncn1CCCn1cc(C2=C(c3ccccc3[N+](=O)[O-])C(=O)NC2=O)c2ccccc21` showed an IC50 of 1220 nM. In the case of `Cc1cncn1CCCn1cc(C2=C(c3ccc(F)cc3)C(=O)NC2=O)c2ccccc21`, the IC50 is reported as 3220 nM. Compound `COc1cc(C2=C(c3cn(CCCn4cncc4C)c4ccccc34)C(=O)NC2=O)ccc1OCCCCN1CCCCC1` has an IC50 of 830 nM. `Cc1cncn1CCCn1cc(C2=C(c3ccc(OCCCc4ccccc4)cc3)C(=O)NC2=O)c2ccccc21` showed an IC50 of 7970 nM. `COc1cc(C2=C(c3cn(CCCn4cncc4C)c4ccccc34)C(=O)NC2=O)ccc1OCCCN1CCOCC1` gave an IC50 of 7020 nM. For `Cc1cncn1CCCn1cc(C2=C(c3ccc(OCCCCN4CCN(c5ccccc5)CC4)cc3)C(=O)NC2=O)c2ccccc21`, the IC50 was 7630 nM. `Cc1cncn1CCCn1cc(C2=C(c3ccc(OCCCN4CCN(C)CC4)cc3)C(=O)NC2=O)c2ccccc21` was tested, and the IC50 was 1300 nM. Compound `Cc1cncn1CCCn1cc(C2=C(c3cccc(F)c3)C(=O)NC2=O)c2ccccc21` has an IC50 of 10800 nM. Compound `CCCCOc1ccc(C2=C(c3cn(CCCn4cncc4C)c4ccccc34)C(=O)NC2=O)cc1` has an IC50 of 10200 nM.

What follows are compounds tested against Glycogen synthase kinase-3 beta (Homo sapiens, UniProt P49841) (assay: Inhibition of GSK-3beta (unknown origin)).
Chain of Glycogen synthase kinase-3 beta (P49841 whole entry): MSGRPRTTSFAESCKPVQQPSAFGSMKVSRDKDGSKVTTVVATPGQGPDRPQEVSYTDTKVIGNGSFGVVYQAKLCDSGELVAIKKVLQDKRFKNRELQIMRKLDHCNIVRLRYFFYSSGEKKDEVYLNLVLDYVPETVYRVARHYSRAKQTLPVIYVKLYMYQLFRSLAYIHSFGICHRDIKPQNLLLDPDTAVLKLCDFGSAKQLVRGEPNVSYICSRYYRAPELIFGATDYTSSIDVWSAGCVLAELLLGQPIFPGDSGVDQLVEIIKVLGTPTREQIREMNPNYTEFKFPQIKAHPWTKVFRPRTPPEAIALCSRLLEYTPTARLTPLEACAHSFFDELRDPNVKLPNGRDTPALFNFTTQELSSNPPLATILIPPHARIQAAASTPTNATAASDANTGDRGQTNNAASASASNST
With `Cc1cncn1CCCn1cc(C2=C(c3ccccc3F)C(=O)NC2=O)c2ccccc21` the IC50 was 29 nM. Compound `COc1cccc(C2=C(c3cn(CCCn4cncc4C)c4ccccc34)C(=O)NC2=O)c1` has an IC50 of 55 nM. For `Cc1cncn1CCCn1cc(C2=C(c3ccc(OCCCn4ccnc4)cc3)C(=O)NC2=O)c2ccccc21`, the IC50 was 104 nM. Compound `Cc1cncn1CCCn1cc(C2=C(c3ccc(OCCCN4CCCCC4)cc3)C(=O)NC2=O)c2ccccc21` has an IC50 of 87 nM. For `Cc1ccccc1C1=C(c2cn(CCCn3cncc3C)c3ccccc23)C(=O)NC1=O`, the IC50 was 59 nM. With `Cc1cncn1CCCn1cc(C2=C(c3ccc(OCCCCc4ccccc4)cc3)C(=O)NC2=O)c2ccccc21` the IC50 was 192 nM. For `Cc1cncn1CCCn1cc(C2=C(c3cc(F)c(F)cc3F)C(=O)NC2=O)c2ccccc21`, the IC50 was 122 nM. `COc1cc(C2=C(c3cn(CCCn4cncc4C)c4ccccc34)C(=O)NC2=O)ccc1OCCCCc1ccccc1` was tested, and the IC50 was 91 nM. With `Cc1cncn1CCCn1cc(C2=C(c3ccc(OCCCCN4CCCC4)cc3)C(=O)NC2=O)c2ccccc21` the IC50 was 93 nM. `Cc1cncn1CCCn1cc(C2=C(c3ccc(OCCCCN4CCN(C)CC4)cc3)C(=O)NC2=O)c2ccccc21` was tested, and the IC50 was 15 nM. Compound `Cc1cncn1CCCn1cc(C2=C(c3ccc(OCCCN4CCCC4)cc3)C(=O)NC2=O)c2ccccc21` has an IC50 of 162 nM. For `COc1cc(C2=C(c3cn(CCCn4cncc4C)c4ccccc34)C(=O)NC2=O)ccc1OCCCc1ccccc1`, the IC50 was 177 nM. With `Cc1cncn1CCCn1cc(C2=C(c3ccccc3)C(=O)NC2=O)c2ccccc21` the IC50 was 14 nM. In the case of `CCCOc1ccc(C2=C(c3cn(CCCn4cncc4C)c4ccccc34)C(=O)NC2=O)cc1`, the IC50 is reported as 150 nM. Compound `COc1ccccc1C1=C(c2cn(CCCn3cncc3C)c3ccccc23)C(=O)NC1=O` has an IC50 of 23 nM. Compound `Cc1cncn1CCCn1cc(C2=C(c3ccc(OCCCCn4ccnc4)cc3)C(=O)NC2=O)c2ccccc21` has an IC50 of 133 nM. Work on `Cc1cncn1CCCn1cc(C2=C(c3ccc(OCCCN4CCN(c5ccccc5)CC4)cc3)C(=O)NC2=O)c2ccccc21` yielded an IC50 of 197 nM. `COc1ccc(C2=C(c3cn(CCCn4cncc4C)c4ccccc34)C(=O)NC2=O)cc1OC` was tested, and the IC50 was 36 nM. `Cc1cncn1CCCn1cc(C2=C(c3ccc(OCCCCN4CCOCC4)cc3)C(=O)NC2=O)c2ccccc21` gave an IC50 of 57 nM. For `COc1cc(C2=C(c3cn(CCCn4cncc4C)c4ccccc34)C(=O)NC2=O)ccc1OCCCN1CCCCC1`, the IC50 was 51 nM. For `Cc1cncn1CCCn1cc(C2=C(c3ccc(OCCCN4CCOCC4)cc3)C(=O)NC2=O)c2ccccc21`, the IC50 was 178 nM. Compound `Cc1cncn1CCCn1cc(C2=C(c3cccc([N+](=O)[O-])c3)C(=O)NC2=O)c2ccccc21` has an IC50 of 47 nM. `COc1cc(C2=C(c3cn(CCCn4cncc4C)c4ccccc34)C(=O)NC2=O)ccc1OCCCCN1CCOCC1` showed an IC50 of 59 nM. `Cc1cncn1CCCn1cc(C2=C(c3ccc(OCCCCN4CCCCC4)cc3)C(=O)NC2=O)c2ccccc21` was tested, and the IC50 was 68 nM. `Cc1cncn1CCCn1cc(C2=C(c3ccc([N+](=O)[O-])cc3)C(=O)NC2=O)c2ccccc21` showed an IC50 of 161 nM. `Cc1cccc(C2=C(c3cn(CCCn4cncc4C)c4ccccc34)C(=O)NC2=O)c1` gave an IC50 of 103 nM. `Cc1cncn1CCCn1cc(C2=C(c3ccccc3[N+](=O)[O-])C(=O)NC2=O)c2ccccc21` gave an IC50 of 2 nM. `Cc1cncn1CCCn1cc(C2=C(c3ccc(F)cc3)C(=O)NC2=O)c2ccccc21` was tested, and the IC50 was 102 nM. Work on `COc1cc(C2=C(c3cn(CCCn4cncc4C)c4ccccc34)C(=O)NC2=O)ccc1OCCCCN1CCCCC1` yielded an IC50 of 64 nM. For `Cc1cncn1CCCn1cc(C2=C(c3ccc(OCCCc4ccccc4)cc3)C(=O)NC2=O)c2ccccc21`, the IC50 was 182 nM. Compound `COc1cc(C2=C(c3cn(CCCn4cncc4C)c4ccccc34)C(=O)NC2=O)ccc1OCCCN1CCOCC1` has an IC50 of 89 nM. With `Cc1cncn1CCCn1cc(C2=C(c3ccc(OCCCCN4CCN(c5ccccc5)CC4)cc3)C(=O)NC2=O)c2ccccc21` the IC50 was 200 nM. Compound `Cc1cncn1CCCn1cc(C2=C(c3ccc(OCCCN4CCN(C)CC4)cc3)C(=O)NC2=O)c2ccccc21` has an IC50 of 74 nM. In the case of `Cc1cncn1CCCn1cc(C2=C(c3cccc(F)c3)C(=O)NC2=O)c2ccccc21`, the IC50 is reported as 64 nM. Work on `CCCCOc1ccc(C2=C(c3cn(CCCn4cncc4C)c4ccccc34)C(=O)NC2=O)cc1` yielded an IC50 of 53 nM.
